Where no end group is shown, it is not given here.
Biological target: T1, CCR1 (Homo sapiens, UniProt P32246)
T1 construct: expressed in transfected cells; host or cells: CHO-K1, CHO-pgsB618 (GAG-minus), HEK293 WT / DeltaSia / sC
T1 sequence (P32246 1-355): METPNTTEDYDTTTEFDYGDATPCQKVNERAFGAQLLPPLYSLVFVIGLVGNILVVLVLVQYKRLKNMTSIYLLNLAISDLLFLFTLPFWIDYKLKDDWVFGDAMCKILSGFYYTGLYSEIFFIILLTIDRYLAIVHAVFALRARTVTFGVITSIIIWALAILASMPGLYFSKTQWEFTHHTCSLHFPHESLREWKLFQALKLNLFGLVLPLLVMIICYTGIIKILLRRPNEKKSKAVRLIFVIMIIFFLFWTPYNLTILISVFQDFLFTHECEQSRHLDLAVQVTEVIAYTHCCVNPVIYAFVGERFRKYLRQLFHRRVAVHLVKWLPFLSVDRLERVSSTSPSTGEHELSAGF
Assay: BRET CAMYEL cAMP sensor assay of ligand-induced Gαi signaling via CCR1
Format: cell-based
Conditions: n = 3
Method: For quantification of signaling initiated immediate downstream of receptor activation, we used the cAMP binding CAMYEL sensor to perform bioluminescence resonance energy transfer (BRET)-based assays. Shortly, in this assay increased receptor activation leads to an increase in BRET ratio. For detailed information see the Materials and Methods section.
In signaling assays testing the boosting ability of basic peptides, transfected cells were aliquoted into 96-well plates in the presence of 10 µM peptide or PBS vehicle. After R-Luc substrate addition, chemokines were added to reach final concentrations ranging from 0–100 nM (0, 0.1, 1, 10, and 100 nM) and forskolin was applied before reading emission at 475 and 525 nm.
BRET measurements of Gαi signaling and β-arrestin recruitment: Cells were seeded in 6-well plates (500,000 cells/well) and transiently transfected the following day. For BRET measurements of Gαi signaling, cells were transfected with vectors encoding the human chemokine receptors as indicated (160 ng/well) and the CAMYEL sensor (cAMP sensor, YFP-Epac-RLuc) (840 ng/well) using Lipofectamine (6 µL/well). Briefly, DNA was dissolved in 125 µL OPTI-MEM and Lipofectamine was dissolved in 125 µL OPTI-MEM. The DNA and Lipofectamine solutions were combined into a transfection mixture. The transfection mixture was added dropwise to cells incubated in OPTI-MEM (1 mL/well). Transfections were terminated after 5 h by adding 1 mL of fresh culture medium on top of the OPTI-MEM. The following day the cells were loosened from the plates in PBS with 5 mM glucose and subsequently aliquoted in white 96-well iso plates (~25,000 cells/well). When using C21TP variants and defense peptides (hBD2 and histatin), these were added to a final concentration of 10 μM/well, while an equal amount of PBS was added to control cells. The bioluminescence substrate coelenterazine was added to a final conc. of 5 µM. After 10 min, varying ligand concentrations were added. For BRET measurements of Gαi signaling, forskolin was added 5 min after the addition of the ligand, to a final conc. of 5 µM. The plates were kept in the dark at all times. A Perkin Elmer Envision machine was used for measuring the emission signals at 530 and 480 nm. The BRET signal is determined as the ratio eYFP (530 nm)/Rluc (480 nm).
BRET principle with CAMYEL: For quantification of signaling initiated immediately downstream of receptor activation, we used the cAMP binding CAMYEL sensor to perform bioluminescence resonance energy transfer (BRET) based assays. In this assay we measure changes in intracellular cAMP levels in response to receptor activation. Activation of chemokine receptors lead to a decrease in cAMP through inhibition of adenylate cyclase (AC). In the current setup we initially add forskolin that stimulates AC directly to induce an increase in intracellular cAMP, and we then measure the ability of a ligand (chemokine) to counteract the forskolin-induced increase in cAMP. The cAMP sensor (CAMYEL cAMP sensor, YFP-Epac-RLuc) carries the donor Renilla luciferase (Rluc) and the acceptor YFP. Coelenterazine is a substrate for Rluc that will emit light at around 475 nm upon enzymatic cleavage catalyzed by Rluc. When Rluc and YFP are in close proximity, the energy from the emitted light from coelenterazine can be transferred to YFP, resulting in an excitation of YFP, leading to a BRET signal around 525 nm. EPAC is a cAMP binding protein that changes conformation upon cAMP binding. During low cAMP concentrations, Rluc and YFP are near each other, and a strong BRET signal at 525 nm is obtained. When cAMP levels increase, cAMP will bind to EPAC, creating a conformational change, separating Rluc and YFP, reducing the BRET ratio, and increasing the emission from Rluc at 475 nm. Thus, by measuring the ratio between the cAMP-bound (475 nm) and the cAMP-free (525 nm) state of CAMYEL we obtain a measure of receptor activation. […]

[1] = CHO-K1 cells, 10 µM peptide, chemokine 0-100 nM
[2] = HEK293 WT, DeltaSia and sC cells, 10 µM peptide

| LogEC50 of CCL5-induced Gαi signaling via CCR1 (CHO GAG-minus cells (CHO-pgsB618)) | LogEC50 of CCL5-induced Gαi signaling via CCR1 (CHO GAG-plus (WT CHO-K1) cells) | Gαi signaling via CCR1 in DeltaSia and sC cells (HEK293 DeltaSia and sC, CCL5 oligomerization variants experiment) | boosting of CCL5 signaling via CCR1 in GAG-plus and GAG-minus cells (CHO GAG-plus and CHO GAG-minus (CHO-pgsB618) cells, 10 µM peptide) | boosting of CCL5-induced Gαi signaling via CCR1 [1] | boosting of CCL7-induced Gαi signaling via CCR1 [1] | effect on CCL3-induced Gαi signaling via CCR1 [1] | boosting of signaling by CCL5, E26A and E66A via CCR1 (HEK293 DeltaSia cells, 10 µM peptide) | boosting of CCL3 signaling via CCR1 [2] | boosting of CCL5 signaling via CCR1 [2] | boosting of CCL7 signaling via CCR1 [2] | boosting of signaling by CCL5, E26A and E66A via CCR1 (HEK293 sC cells, 10 µM peptide) | Substance | Gαi signaling via CCR1 in DeltaSia and sC cells compared to WT cells (HEK293 DeltaSia and sC) | boosting of signaling by CCL5, E26A and E66A via CCR1 (HEK293 WT cells, 10 µM peptide) |
| --- | --- | --- | --- | --- | --- | --- | --- | --- | --- | --- | --- | --- | --- | --- |
| −9.42 ± 0.131 | −8.89 ± 0.133 | remains high | – | – | – | – | – | – | – | – | – | CCL5: human chemokine from Peprotech, overall basic | persists in DeltaSia and sC to almost the same high level as observed in WT cells | – |
| – | – | – | boosted | boosted | boosted | not affected | tendency for boosting | not boosted | preserved across all three cell lines | persists | significant boosting | RKDRGASKTGKKGKGSKGCKRTERSQTPKGP [C21TP^81-111] | – | boosting occurs with all three versions of CCL5 |
